Patent US11768205B2, “Methods and materials for identifying and treating cancers having elevated levels of phosphorylated ubiquitin” (Mayo Foundation for Medical Education and Research, priority 2017, dated 2023)

Key:
[1] = system: NIH-3T3 cells transformed by EGFR L858R; assay: Cell proliferation and MTS assay; assay type: cell-based, mouse; settings: EGFR L858R transformed cells compared to Ctrl cells; FIG. 14G
Description: FIG. 14. […] (A-D). NIH-3T3 cells were infected with virus expressing EGFR DM mutant. Cells were harvested at different times after infection. Total Ub conjugates (A), K48-linked conjugates (B), and K63-linked conjugates (C) were determined by Western blot, and their intensities were quantitated and normalized to that of β-actin. Data were mean±SD of three independent experiments. (**: p<0.01, Student's t-test). (E) NIH-3T3 cells were infected with virus expressing EGFR DM mutant. Cells were harvested at different times after infection. Cell lysates were blotted with an anti-pY59 antibody. (F). NIH-3T3 stably expressing empty vector (Ctrl) or EGFR L858R mutant were serum starved for 48 hours and were labeled with ^35S Met for 24 hours in the absence of serum. […] At different time points, cells were harvested, and radiolabeled protein remaining in the cell was measured. The rate of protein degradation was shown as the fraction of radiolabeled protein remaining over time. […]
90 μL of cells (5×10^5 cells/mL) were plated into each well of 96-well plates (Corning, Lowell, Mass.; MacLean et al., Bioinformatics, 26:966-968 (2010)) and were treated with 10 μL of bortezomib at the final concentrations of 0, 0.0457, 0.1372, 0.4115, 1.2346, 3.7037, 11.1111, 33.3333 and 100 nM. […] Plates were then read in a microplate reader at absorbance of OD 490 (Tecan AG, Switzerland).

MDA-MB-468 cells [2] = assay: Pulse-chase measurement of protein degradation (35S-Met); assay type: cell-based, human
Description: FIG. 3. EGFR enhances proteasomal degradation and promotes K48-linked ubiquitin conjugates. (A). MDA-MB-468 cells were serum starved for 24 hours and labeled with ^35S-Met for 24 hours. […] The rate of protein degradation was shown as the fraction of radiolabelled protein remaining over time. Data were mean±SD of three independent experiments. (**: p<0.01, two-way ANOVA test). (B and C). MDA-MB-468 cells were treated as in (A), except that 20 nM bortezomib (B) or 10 μM chloroquine (C) was present in the chase media. Data were mean±SD of three independent experiments. (**: p<0.01, two-way ANOVA test). (D). […] Total Ub conjugates, K48-linked conjugates, and K63-linked conjugates were determined by Western blot, and their intensities were quantitated and normalized to that of β-actin and then to time 0 in each group. Data were mean±SD of three independent experiments. (**: p<0.01, Student's t-test). (E). […] Total Ub conjugates, K48-linked conjugates, and K63-linked conjugates were determined by Western blot, and their intensities were quantitated and normalized to that of β-actin and then to control in each group. Data were mean±SD of three independent experiments. (**: p<0.01, Student's t-test). (F). HEK293 cells were transfected with empty vector (Ctrl) or constitutively-active EGFR (encoding the T790M/L858R mutation) and treated with AG-1478. Total Ub conjugates, K48-linked conjugates, and K63-linked conjugates were determined by Western blot, and their intensities were quantitated and normalized to that of β-actin and then to time 0 in each group. Data were mean±SD of three independent experiments. (**: p<0.01, Student's t-test).
FIG. 4. EGF treatment raises the cellular content of Ub conjugates independent of EGFR ubiquitination and new protein synthesis. (A-D). […] Total Ub conjugates (A), K48-linked conjugates (B), and K63-linked conjugates were determined by Western Blot, and their intensities were quantitated and normalized to that of β-actin and then to control at time 0 in each group (D). Data were mean±SD of three independent experiments. (**: p<0.01, Student's t-test). (E). […] At different time points, cells were harvested, and radiolabeled protein remaining in the cell was measured. […] Cells were treated as illustrated in (A), and the radioactivity of remaining in cells was measured. […] The levels of Ub conjugates and β-actin were determined by Western blot (C) and quantitated (D). […]
To assess protein degradation, cells were starved for 30 minutes with methionine-free DMEM and pulse labelled for 16-24 hours with 0.5 mL of medium containing 0.1 mCi of ^35S-Met. […] After washing in cold PBS, cells were treated in chase medium for various times, and the remaining radioactivity in cells was measured as described elsewhere (Taelman et al., Cell, 143:1136-1148 (2010)). […]

MDA-MB-468 cells [3] = assay: Western blot of total, K48-linked and K63-linked Ub conjugates after EGF; assay type: cell-based, human
Description: FIG. 3. EGFR enhances proteasomal degradation and promotes K48-linked ubiquitin conjugates. (A). MDA-MB-468 cells were serum starved for 24 hours and labeled with ^35S-Met for 24 hours. […] The rate of protein degradation was shown as the fraction of radiolabelled protein remaining over time. Data were mean±SD of three independent experiments. (**: p<0.01, two-way ANOVA test). (B and C). MDA-MB-468 cells were treated as in (A), except that 20 nM bortezomib (B) or 10 μM chloroquine (C) was present in the chase media. Data were mean±SD of three independent experiments. (**: p<0.01, two-way ANOVA test). (D). […] Total Ub conjugates, K48-linked conjugates, and K63-linked conjugates were determined by Western blot, and their intensities were quantitated and normalized to that of β-actin and then to time 0 in each group. Data were mean±SD of three independent experiments. (**: p<0.01, Student's t-test). (E). […] Total Ub conjugates, K48-linked conjugates, and K63-linked conjugates were determined by Western blot, and their intensities were quantitated and normalized to that of β-actin and then to control in each group. Data were mean±SD of three independent experiments. […] Total Ub conjugates, K48-linked conjugates, and K63-linked conjugates were determined by Western blot, and their intensities were quantitated and normalized to that of β-actin and then to time 0 in each group. […]

MDA-MB-468 cells [4] = assay: Immunoblot of Ub Y59 phosphorylation with anti-pY59 antibody; assay type: cell-based, human; settings: 20 ng EGF, time dependent; FIG. 7D
Description: FIG. 7. EGFR phosphorylates ubiquitin. (A). An in vitro kinase assay was performed at 30° C. for 1 hour in the presence of EGFR and different tetra-Ub chain or free Ub. The gels were subjected to western blot with anti-phosphor-tyrosine antibody (upper panel) or Coomassie brilliant blue (CBB) staining (lower panel). (B). Lysates from EGF treated cells was trypsinized and subjected to liquid chromatography tandem mass spectrometry (LC-MS/MS) analysis. (C). […] Absolute quantification of […] and TLSD(pY)[…] from control of EGF treated cells were quantified by Parallel Reaction Monitoring. Data were mean±SD of three independent experiments. (**: p<0.01, Student's t-test). […] Cell lysates were blotted with the anti-pY59 antibody. (E). […] Cell lysates were blotted with antibodies against pY59 and β-actin. (F). WT Ub- and Ub Y59F-replacement cells were serum starved and induced with DOX for 72 hours to replace endogenous Ub with WT Ub or Ub Y59F. […] Cell lysates were blotted with antibodies against pY59 and β-actin.
Cell lysates were prepared, and immunoprecipitation and immunoblotting were performed as described elsewhere (Deng et al., Mol. Cell, 61:614-624 (2016)). In brief, cells were lysed with NETN buffer (20 mM Tris-HCl, pH 8.0, 100 mM NaCl, 1 mM EDTA, 0.5% Nonidet P-40) containing 50 mM β-glycerophosphate, 10 mM NaF, and 1 mg/mL each of pepstatin A and aprotinin. […]

NIH-3T3 cells = assay: Western blot of Ub conjugates after FGFb; assay type: cell-based, mouse
Description: FIG. 6. FGFR activation increases cellular Ub conjugates. (A to D). NIH-3T3 cells were serum starved for 48 hours and then treated with 20 ng/mL FGFb and harvested at different time course. Total Ub conjugates (A), K48-linked conjugates (B), and K63-linked conjugates (C) were determined by Western blot, and their intensities were quantitated and normalized to that of β-actin and then to time 0 in each group (D). Data were mean±SD of three independent experiments. (**: p<0.01, Student's t-test). (E to H). HEK293 cells were transfected with empty vector (Ctrl), FGFR2 wide type, or FGFR2 kinase dead mutant (KR). Total Ub conjugates (E), K48-linked conjugates (F), and K63-linked conjugates (G) were determined by Western blot, and their intensities were quantitated and normalized to that of β-actin and then to control in each group (H). Data were mean±SD of three independent experiments. (**: p<0.01, Student's t-test). (I to L). NIH-3T3 cells were serum starved for 48 hours and then treated with vehicle, FGFb, or FGFb and FGF inhibitor TKI-258. Total Ub conjugates (I), K48-linked conjugates (J), and K63-linked conjugates (K) were determined by Western blot, and their intensities were quantitated and normalized to that of β-actin and then to control in each group (L). Data were mean±SD of three independent experiments. (**: p<0.01, Student's t-test).
Cell lysates were prepared, and immunoprecipitation and immunoblotting were performed as described elsewhere (Deng et al., Mol. Cell, 61:614-624 (2016)). In brief, cells were lysed with NETN buffer (20 mM Tris-HCl, pH 8.0, 100 mM NaCl, 1 mM EDTA, 0.5% Nonidet P-40) containing 50 mM β-glycerophosphate, 10 mM NaF, and 1 mg/mL each of pepstatin A and aprotinin. Whole cell lysates were centrifuged at 12000 rpm for 15 minutes. Whole cell lysates were incubated with 2 of antibody and protein A or protein G Sepharose beads (Amersham Biosciences) for 2 hours or overnight at 4° C. The immunocomplexes were then washed with NETN buffer for three times and separated by SDS-PAGE. Immunoblotting was performed following standard procedures. […]

CC(C)C[C@H](NC(=O)[C@H](Cc1ccccc1)NC(=O)c1cnccn1)B(O)O [bortezomib]
bortezomib sensitivity [1]: much higher

EGF: growth factor used to activate EGFR (NSDSECPLSHDGYCLHDGVCMYIEALDKYACNCVVGYIGERCQYRDLKWWELR; Epidermal growth factor; UniProt P01133 971-1023, looked up)
rate of protein degradation (MDA-MB-468 cells [2]; EGF in chase medium, FIG. 3A): decrease | lysosome-dependent degradation (MDA-MB-468 cells [2]; EGF, in the presence of 20 nM bortezomib, FIG. 3B): inhibited | proteasome-mediated proteolysis (MDA-MB-468 cells [2]; EGF, in the presence of 10 μM chloroquine, FIG. 3C): increased dramatically | cellular ubiquitin conjugates (MDA-MB-468 cells [3]; 20 ng EGF, time dependent, FIG. 3D): significantly higher | phosphorylation of Ub (MDA-MB-468 cells [4]): dramatic increase

N#CC(=C(/N)Sc1ccccc1N)/C(C#N)=C(\N)Sc1ccccc1N [U0126]
effect on stimulation of Ub chain assembly by EGF (MDA-MB-468 cells [3]; pretreated 12 hours before EGF treatment, FIGS. 5B-E): did not affect

FGFb: FGF basic, growth factor used to activate FGFR
increase in total content of ubiquitinated proteins and K48-linked Ub conjugates (NIH-3T3 cells; 20 ng/mL FGFb for 20 minutes, FIGS. 6A-D): 50% | treatment time to maximal increase in Ub conjugates (NIH-3T3 cells; 20 ng/mL FGFb, FIGS. 6A-D): 40 min

C[C@@H]1C[C@@H]([C@H](O)CC2CC(=O)NC(=O)C2)C(=O)[C@@H](C)C1 [cycloheximide]
proteasomal proteolysis (MDA-MB-468 cells [2]; 100 μg/mL cycloheximide by itself, chloroquine in chase, FIG. 4G): reduced

CC(O)C(=O)O.CN1CCN(c2ccc3nc(-c4c(N)c5c(F)cccc5[nH]c4=O)[nH]c3c2)CC1 [TKI-258, Dovitinib (TKI 258)]
effect on increase in Ub conjugates induced by FGFb (NIH-3T3 cells; FGFb and TKI-258, FIGS. 6I-L): blocked
